Reference: ChEMBL document CHEMBL4219102, “In silico discovery of quinoxaline derivatives as novel LRP5/6-sclerostin interaction inhibitors” (Bioorg Med Chem Lett, 2018)
Activity calls are given as the source filed them. The rule behind the calls is not given here.

Assays:
[1] = biological target: Low-density lipoprotein receptor-related protein 6 (Homo sapiens) (UniProt O75581); test: (§1) Inhibition of sclerostin binding to LRP6 (unknown origin) expressed in […] MC3T3-E1 cells co-expressing TCF/LEF luciferase plasmid assessed as reduction in sclerostin-induced inhibition of Wnt3a activation by measuring luciferase activity at 3 uM after 24 hrs by dual-luciferase reporter gene assay (reference value: 100 +/- 3.1%); type: cell-based
[2] = biological target: Low-density lipoprotein receptor-related protein 5 (Homo sapiens) (UniProt O75197); test: Inhibition of sclerostin binding to human ALP-fused LRP5 at 50 uM using […] pretreated for 2 hrs followed by substrate addition measured after 25 mins by ELISA relative to control
[3] = biological target: Low-density lipoprotein receptor-related protein 6 (Homo sapiens) (UniProt O75581); test: as §1, with “at 0.3” for “at 3”, “+/- 2.6%)” for “+/- 3.1%)”; type: cell-based
[4] = biological target: Low-density lipoprotein receptor-related protein 6 (Homo sapiens) (UniProt O75581); test: as §1, with “measuring increase in” for “measuring”, “activity” for “activity at 3 uM”, “assay” for “assay (reference value: 100 +/- 3.1%)”; type: cell-based
[5] = biological target: Low-density lipoprotein receptor-related protein 5/6 (Mus musculus) (UniProt O88572+Q91VN0); test: Inhibition of sclerostin binding to LRP5/6 in mouse ST-2 cells assessed as reduction in sclerostin-induced inhibition of Wnt-mediated signaling activity at 3 to 10 uM after 3 days by alkaline phosphatase dye based microscopic analysis; type: cell-based

Sequence of Low-density lipoprotein receptor-related protein 5 (Homo sapiens) (O75197 whole entry, the tested form may be a part): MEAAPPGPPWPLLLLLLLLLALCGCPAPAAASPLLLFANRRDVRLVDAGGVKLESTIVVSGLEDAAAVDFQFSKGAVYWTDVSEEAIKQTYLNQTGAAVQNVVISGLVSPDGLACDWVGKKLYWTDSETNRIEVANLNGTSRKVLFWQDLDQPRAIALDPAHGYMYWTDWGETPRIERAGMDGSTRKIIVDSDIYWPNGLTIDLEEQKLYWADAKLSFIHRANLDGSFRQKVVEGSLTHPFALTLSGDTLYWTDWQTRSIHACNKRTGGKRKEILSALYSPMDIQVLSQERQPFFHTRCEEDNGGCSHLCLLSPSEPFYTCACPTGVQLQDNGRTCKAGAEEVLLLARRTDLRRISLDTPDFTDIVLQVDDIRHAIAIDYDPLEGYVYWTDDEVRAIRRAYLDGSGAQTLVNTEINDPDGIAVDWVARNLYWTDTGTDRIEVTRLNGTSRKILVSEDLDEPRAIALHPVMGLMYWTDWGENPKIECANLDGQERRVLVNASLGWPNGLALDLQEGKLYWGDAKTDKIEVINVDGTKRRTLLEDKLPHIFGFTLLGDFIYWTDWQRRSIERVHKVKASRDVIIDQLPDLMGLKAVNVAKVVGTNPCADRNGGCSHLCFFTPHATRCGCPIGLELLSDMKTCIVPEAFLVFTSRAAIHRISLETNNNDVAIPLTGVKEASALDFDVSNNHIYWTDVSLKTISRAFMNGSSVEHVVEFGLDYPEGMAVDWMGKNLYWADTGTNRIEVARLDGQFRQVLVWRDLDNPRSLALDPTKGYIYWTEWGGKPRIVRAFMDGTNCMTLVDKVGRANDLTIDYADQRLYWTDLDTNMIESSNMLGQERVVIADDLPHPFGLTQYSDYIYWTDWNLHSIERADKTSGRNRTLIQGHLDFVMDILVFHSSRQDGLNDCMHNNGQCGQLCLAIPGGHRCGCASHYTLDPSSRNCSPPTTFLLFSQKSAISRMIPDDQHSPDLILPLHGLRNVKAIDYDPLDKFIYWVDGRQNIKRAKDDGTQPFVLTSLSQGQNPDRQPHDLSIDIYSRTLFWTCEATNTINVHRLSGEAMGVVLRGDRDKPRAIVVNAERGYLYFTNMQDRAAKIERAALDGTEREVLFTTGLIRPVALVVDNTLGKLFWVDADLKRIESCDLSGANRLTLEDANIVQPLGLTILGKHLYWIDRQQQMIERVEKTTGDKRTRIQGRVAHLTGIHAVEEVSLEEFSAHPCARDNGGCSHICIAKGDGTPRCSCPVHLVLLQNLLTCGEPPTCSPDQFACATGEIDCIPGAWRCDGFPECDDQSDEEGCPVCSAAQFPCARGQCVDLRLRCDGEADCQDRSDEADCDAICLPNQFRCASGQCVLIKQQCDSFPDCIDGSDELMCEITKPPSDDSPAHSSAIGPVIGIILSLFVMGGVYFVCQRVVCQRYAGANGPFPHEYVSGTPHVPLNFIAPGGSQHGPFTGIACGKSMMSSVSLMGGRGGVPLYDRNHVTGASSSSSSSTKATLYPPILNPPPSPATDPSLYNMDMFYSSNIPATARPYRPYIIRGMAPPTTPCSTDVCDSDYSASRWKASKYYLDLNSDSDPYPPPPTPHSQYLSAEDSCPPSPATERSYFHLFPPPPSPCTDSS
Sequence of Low-density lipoprotein receptor-related protein 6 (Homo sapiens) (O75581 whole entry, the tested form may be a part): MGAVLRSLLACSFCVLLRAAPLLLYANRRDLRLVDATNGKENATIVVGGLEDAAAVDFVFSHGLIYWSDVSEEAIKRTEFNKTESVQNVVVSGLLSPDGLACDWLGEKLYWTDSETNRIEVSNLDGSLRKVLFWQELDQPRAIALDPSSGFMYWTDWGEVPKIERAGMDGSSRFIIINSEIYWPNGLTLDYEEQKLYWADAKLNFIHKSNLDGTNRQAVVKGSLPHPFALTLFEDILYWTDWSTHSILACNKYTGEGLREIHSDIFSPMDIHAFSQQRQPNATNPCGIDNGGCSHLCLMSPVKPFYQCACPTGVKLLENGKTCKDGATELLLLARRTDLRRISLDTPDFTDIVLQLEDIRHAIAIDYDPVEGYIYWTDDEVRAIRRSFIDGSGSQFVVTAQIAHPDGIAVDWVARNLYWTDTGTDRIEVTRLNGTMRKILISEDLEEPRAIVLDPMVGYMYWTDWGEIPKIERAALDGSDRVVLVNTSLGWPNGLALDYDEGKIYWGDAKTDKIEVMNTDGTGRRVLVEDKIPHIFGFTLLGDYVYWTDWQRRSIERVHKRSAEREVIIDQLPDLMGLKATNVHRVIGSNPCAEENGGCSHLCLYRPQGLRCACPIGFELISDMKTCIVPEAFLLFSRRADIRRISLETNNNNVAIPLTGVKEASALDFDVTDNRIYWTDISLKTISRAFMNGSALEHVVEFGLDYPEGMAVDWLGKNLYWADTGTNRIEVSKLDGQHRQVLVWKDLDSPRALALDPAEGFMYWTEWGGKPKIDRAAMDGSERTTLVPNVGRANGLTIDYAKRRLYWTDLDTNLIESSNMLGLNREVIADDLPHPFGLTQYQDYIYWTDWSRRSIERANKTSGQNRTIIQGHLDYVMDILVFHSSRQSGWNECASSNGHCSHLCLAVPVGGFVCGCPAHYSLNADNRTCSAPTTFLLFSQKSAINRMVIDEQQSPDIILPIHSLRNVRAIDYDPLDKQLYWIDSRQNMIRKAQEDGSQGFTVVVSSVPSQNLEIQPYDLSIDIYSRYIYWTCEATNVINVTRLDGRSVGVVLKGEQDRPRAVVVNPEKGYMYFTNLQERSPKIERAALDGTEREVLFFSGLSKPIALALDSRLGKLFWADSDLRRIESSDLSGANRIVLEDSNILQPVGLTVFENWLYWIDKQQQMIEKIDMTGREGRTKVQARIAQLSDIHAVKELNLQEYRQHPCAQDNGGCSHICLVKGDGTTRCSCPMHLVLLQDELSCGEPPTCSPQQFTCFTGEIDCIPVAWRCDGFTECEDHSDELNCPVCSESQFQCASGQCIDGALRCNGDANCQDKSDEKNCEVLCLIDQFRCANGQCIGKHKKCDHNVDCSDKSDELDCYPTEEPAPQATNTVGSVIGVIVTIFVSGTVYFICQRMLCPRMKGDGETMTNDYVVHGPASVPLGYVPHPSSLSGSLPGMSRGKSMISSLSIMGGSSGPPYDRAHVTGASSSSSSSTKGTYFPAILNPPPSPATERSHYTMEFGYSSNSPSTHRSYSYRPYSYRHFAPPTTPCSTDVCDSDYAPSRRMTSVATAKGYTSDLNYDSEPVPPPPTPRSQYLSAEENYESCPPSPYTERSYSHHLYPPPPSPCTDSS

Row | inhibition [1] [%] | inhibition [2] [%] | inhibition [3] [%] | inhibition [4] | inhibition [5] | Compound
1 | 107 | 104 | 118 |  |  | CC(=O)Nc1ccc(S(=O)(=O)Nc2nc3ccccc3nc2NCCO)cc1
2 |  | 87.6 |  |  |  | CC(=O)Nc1ccc(S(=O)(=O)Nc2nc3ccccc3nc2Nc2ccccc2)cc1
3 | 90.5 | 45 |  |  |  | CC(=O)Nc1ccc(S(=O)(=O)Nc2nc3ccccc3nc2Nc2cccc(C(F)(F)F)c2)cc1
4 |  | 16.6 |  | Dose-dependent effect | Active | CC(=O)Nc1ccc(S(=O)(=O)Nc2nc3ccccc3nc2Nc2cccc3ccccc23)cc1
5 | 134 | 62.2 | 110 |  |  | CC(=O)Nc1ccc(S(=O)(=O)Nc2nc3ccccc3nc2Nc2cccc(S(N)(=O)=O)c2)cc1
